The values that follow come from patent publication US9119881B2, “Method of synergistically enhancing the therapeutic efficacy and safety of medication through a combination therapy” (priority 2010, dated 2015).

Marks after values point to notes of the source that are not given here. Where no end group is shown, it is not given here. The star is where a group is joined. Myristoyl = CCCCCCCCCCCCCC(=O)*

Series [1] addresses T1, PPAR γ (Mus musculus, UniProt P37238).
T1 construct: expressed in transfected cells; host or cells: 3T3-L1 pre-adipocytes
T1 sequence (P37238 31-505 limits assumed): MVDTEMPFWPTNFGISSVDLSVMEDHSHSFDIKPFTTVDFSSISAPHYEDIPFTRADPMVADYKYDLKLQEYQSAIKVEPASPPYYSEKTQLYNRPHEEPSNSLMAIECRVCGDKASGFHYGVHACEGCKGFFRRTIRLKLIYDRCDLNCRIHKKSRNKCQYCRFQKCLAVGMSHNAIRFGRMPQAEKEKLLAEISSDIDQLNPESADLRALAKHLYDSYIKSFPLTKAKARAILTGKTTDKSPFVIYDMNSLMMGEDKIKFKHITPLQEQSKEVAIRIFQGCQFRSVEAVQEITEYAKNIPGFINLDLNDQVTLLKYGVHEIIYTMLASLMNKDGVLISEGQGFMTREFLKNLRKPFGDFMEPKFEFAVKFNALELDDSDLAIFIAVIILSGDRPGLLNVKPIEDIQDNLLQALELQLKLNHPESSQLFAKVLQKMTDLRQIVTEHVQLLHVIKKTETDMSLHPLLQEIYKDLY
Put plainly: PPAR γ reporter activity assay in 3T3-L1 preadipocytes. The note with it: 6 hrs, 2′5′-dideoxyadenosine 10 μM, PKAi 30 μM; for ABA-induced PPAR γ activation, effect of inhibitor: ABA 10 μM; for Ros-induced PPAR γ activation, effect of inhibitor: Ros 1 μM. In kind it is cell-based. The procedure:
For 3T3-L1 preadipocytes cells were treated for 6-h with vehicle (DMSO) or Ros (1 μM) with ABA (10 μM), the cAMP-inhibitor 2′5′ dideoxyadenosine (dideoxy, 10 μM), or 14-22 myristolated PKA inhibitor fragment (PKAi, 30 μM). […] Luciferase activity was normalized to pRL activity in the cell extracts and relative luciferase activity was calculated a ratio of the activity in the treatment wells to control wells. Data are represented as mean±standard error.
A pCMX.PPAR γ expression plasmid and a pTKPPRE3x luciferase reporter plasmid driven by the PPRE-containing Acyl-CoA oxidase promoter (kindly provided by Dr. R M. Evans, The Salk Institute, San Diego, Calif.) were purified using Qiagen's Maxi kit (Valencia, Calif.). […] Cells were co-transfected in the […] with 1.5 μg plasmid DNA and 25 ng of pRL reporter control using F-2 transfection reagents (Targeting Systems, Santee, Calif.) according to the manufacturer's protocol. […] Cells were then treated in replicates of 8 with vehicle (DMSO), rosiglitazone (1 or 10 μM; Cayman Chemicals, Arm Arbor, Mich.), or ABA (10 μM; Sigma) with and without 2′5′ dideoxyadenosine (10 μM; Sigma) and 14-22 myristolated PKA inhibitor fragment (PKAi, 30 μM; Sigma). […] Luciferase activity, normalized to pRL activity in the cell extracts was determined by using the Dual Luciferase II reporter assay system (Promega, Madison, Wis.) using a Modulus 96-well luminometer (Turner Biosystems, Sunnyvale, Calif.). All values were normalized to control wells to calculate relative luciferase activity.

For series [2] the following is noted: as stated in U.S. Pat. No. 6,515,132; cited from earlier work.
Series [3] in a line: Dietary ABA and rosiglitazone in obese db/db mice: body and organ weights. In kind it is in vivo. The note with it: for Final body weight / Ab. WAT % Body Weight / Liver % Body Weight / Sc. WAT % Body Weight: with or without ABA 100 mg/kg diet; for Final body weight: 60 days. The procedure: Twelve-fifteen week-old BKS.Cg-+Lepr^db/+Lepr^db/OlaHsd (db/db) mice were housed at the animal facilities at Virginia Polytechnic Institute and State University in a room maintained at 75° F., with a 12:12 h light-dark cycle starting from 6:00 AM. All experimental procedures were approved by the Institutional Animal Care and Use Committee of Virginia Polytechnic Institute and State University and met or exceeded requirements of the Public Health Service, National Institutes of Health and the Animal Welfare Act. […] Louis, Mo.) for 60 days. Mice were weighed and fasting (12 h) blood glucose levels were taken weekly. Blood glucose levels were assessed with an ACCU-CHEK® Glucometer (Roche, Indianapolis, Ind.). […] On day 60 mice were sacrificed by CO2 narcosis with secondary thoracotomy. Abdominal WAT, inguinal subcutaneous WAT, and liver were then excised and weighed. Abdominal and subcutaneous WAT were then digested and fractionated.

Setting [4] is: db/db mice, Roshi diet (70 mg/kg diet), day 60.
Where [5] appears, read: db/db mice, Roslo diet (10 mg/kg diet), day 60.

Take `C[C@H]1O[C@@H](n2cnc3c(N)ncnc32)C[C@@H]1O` [2′5′-dideoxyadenosine]: in series [1], the “ABA-induced PPAR γ activation, effect of inhibitor” value is on record as “prevented” and the “Ros-induced PPAR γ activation, effect of inhibitor” value is “no effect”.
Regarding `O=C1NC(=O)C(Cc2ccc3c(c2)CC[C@H](Cc2ccccc2)O3)S1` (stereo partly shown) [Englitazone], the “current minimum effective drug dose” value in series [2] is 200 μmol/kg diet.
Regarding `CN(CCOc1ccc(CC2SC(=O)NC2=O)cc1)c1ccccn1` (stereo not shown) [rosiglitazone], in series [3] (db/db mice fed Ros^hi (70 mg/kg diet)), the “edema in the interscapular region” value was “significant edema”. In addition, the Final body weight in series [3] (db/db mice, Roshi diet (70 mg/kg diet)) is 64.4 ± 2.4^d g. Moreover, in series [3] (setting [4]), the “Ab. WAT % Body Weight” value is 4.6 ± 0.61^a % Body Weight, the “Liver % Body Weight” value is recorded as 6.7 ± 2.3^a % Body Weight and the “Sc. WAT % Body Weight” value turned out to be 3.2 ± 0.43 % Body Weight. Also, the Final body weight in series [3] (db/db mice, Roslo diet (10 mg/kg diet)) was 56.4 ± 2.4^bc g. Besides, in series [3] (setting [5]), the “Ab. WAT % Body Weight” value was 6.7 ± 0.61^bc % Body Weight, the “Liver % Body Weight” value is on record as 9.2 ± 0.51^b % Body Weight and the “Sc. WAT % Body Weight” value was 2.4 ± 0.43 % Body Weight. In series [3] (db/db mice, day 60, low dose Ros, ABA 100 mg/kg diet), the “liver weights (in words)” value was “significantly increased”. The “body weights of the mice (in words)” value in series [3] (db/db mice, both low- and high-dose rosiglitazone, 60-day dietary intervention) is on record as “significantly increased”.
For “PKAi: 14-22 myristoylated PKA inhibitor fragment (Myristoyl-SGRTGRRNA; UniProt P61925 14-22, looked up, fragment)”, in series [1], the “ABA-induced PPAR γ activation, effect of inhibitor” value is given as “prevented” and the “Ros-induced PPAR γ activation, effect of inhibitor” value was “no effect”.
